The supplement of paper PMC10307832

Assays:
Experiment in all cases: relative viability (nuclei count vs DMSO), 5 days (fraction); higher = more cells survive
Tosedostat + Lapatinib = compound: CC(C)C[C@@H](C(=O)N[C@H](C(=O)OC1CCCC1)c1ccccc1)[C@H](O)C(=O)NO [Tosedostat] + CS(=O)(=O)CCNCc1ccc(-c2ccc3ncnc(Nc4ccc(OCc5cccc(F)c5)c(Cl)c4)c3c2)o1 [Lapatinib] (partner 2 µM)
Procedure, shortened: (§1)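 Nuclei were stained with Hoechst during a one-step fixation (final 0.05% Triton X-100, 1% formaldehyde, 1 ug/ml Hoechst) carried out 5 days after dosing, then counted on 4× images. The cells, lung cancer lines in 1536-well plates, had been dosed by pin tool the day after seeding with one drug alone or a fixed anchor-drug dose plus five library-drug doses (not always all listed) in √10 steps. Relative viability is the nuclei count in treated wells divided by that in vehicle wells, and each value is the median of duplicate plates.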

Tosedostat + Dasatinib = compound: CC(C)C[C@@H](C(=O)N[C@H](C(=O)OC1CCCC1)c1ccccc1)[C@H](O)C(=O)NO [Tosedostat] + Cc1nc(Nc2ncc(C(=O)Nc3c(C)cccc3Cl)s2)cc(N2CCN(CCO)CC2)n1 [Dasatinib] (partner 0.075 µM)
Procedure, shortened: as §1

[1] = compound: CC1=NN=C(O1)C2=NN=C(C=C2)N3CCC(CC3)OC4=C(C=CC(=C4)F)Cl + C[C@@H](Oc1cc(-c2cnn(C3CCNCC3)c2)cnc1N)c1c(Cl)ccc(F)c1Cl [Crizotinib] (partner 1 µM)
Procedure, shortened: as §1

[2] = compound: CC1=NN=C(O1)C2=NN=C(C=C2)N3CCC(CC3)OC4=C(C=CC(=C4)F)Cl + O=C(c1cc(Cc2n[nH]c(=O)c3ccccc23)ccc1F)N1CCN(C(=O)C2CC2)CC1 [Olaparib] (partner 8 µM)
Procedure, shortened: as §1

Cell Line	relative viability (Tosedostat + Lapatinib; first compound 0.02 µM)	relative viability (Tosedostat + Lapatinib; first compound 0.06325 µM)	relative viability (Tosedostat + Lapatinib; first compound 0.2 µM)	relative viability (Tosedostat + Lapatinib; first compound 0.6325 µM)	relative viability (Tosedostat + Lapatinib; first compound 2 µM)	relative viability (Tosedostat + Dasatinib; first compound 0.02 µM)	relative viability (Tosedostat + Dasatinib; first compound 0.06325 µM)	relative viability (Tosedostat + Dasatinib; first compound 0.2 µM)	relative viability (Tosedostat + Dasatinib; first compound 0.6325 µM)	relative viability (Tosedostat + Dasatinib; first compound 2 µM)	relative viability ([1]; first compound 0.253 µM)	relative viability ([1]; first compound 0.8 µM)	relative viability ([1]; first compound 2.53 µM)	relative viability ([1]; first compound 8 µM)	relative viability ([2]; first compound 0.253 µM)	relative viability ([2]; first compound 0.8 µM)	relative viability ([2]; first compound 2.53 µM)	relative viability ([2]; first compound 8 µM)
201T	1.05	1.06	1.06	1.09	1.13	0.566	0.632	0.635	0.717	0.553	0.456	0.504	0.499	0.484	0.409	0.382	0.389	0.383
A549	1	1.07	0.957	0.925	0.939	–	–	–	–	–	0.461	0.383	0.316	0.319	0.235	0.0638	0.409	0.163
A-427	1.13	1.1	1.01	1.02	0.995	0.646	0.762	0.733	0.712	0.692	0.826	–	0.779	0.671	0.527	0.634	0.744	0.669
ABC-1	1.34	1.12	1.2	1.19	1.23	0.632	0.598	0.519	0.563	0.481	0.686	0.615	0.426	0.436	0.664	0.506	0.488	0.638
BEN	0.924	0.936	0.68	0.987	0.702	0.348	0.348	0.39	0.446	0.344	0.709	0.796	0.913	0.86	1.2	0.767	0.966	1.07
CAL-12T	0.545	0.7	0.728	0.669	0.678	0.316	0.489	0.472	0.381	0.217	0.552	0.602	0.728	0.506	0.639	0.68	0.651	0.644
COR-L23	1.03	0.946	0.918	0.817	0.99	0.546	0.469	0.495	0.381	0.332	0.527	0.586	0.433	0.435	0.259	0.271	0.345	0.299
COR-L 105	0.415	0.412	0.326	0.416	0.358	0.348	0.37	0.365	0.323	0.298	0.689	0.907	0.786	0.82	0.556	0.703	0.819	0.901
Calu-6	1.33	1.04	0.951	0.899	0.864	–	–	–	–	–	0.485	0.469	0.483	0.465	0.381	0.389	0.385	0.384
ChaGo-K-1	–	–	–	–	–	0.662	0.567	0.587	0.535	0.394	0.76	0.669	0.721	0.694	0.298	0.255	0.354	0.28
EBC-1	0.241	0.245	0.195	0.22	0.17	–	–	–	–	–	0.216	0.171	0.179	0.202	0.485	0.538	0.509	0.438
EKVX	0.19	0.233	0.418	0.218	0.227	0.586	0.565	0.548	0.588	0.512	0.369	0.313	0.311	0.393	0.402	0.381	0.464	0.494
EMC-BAC-2	0.894	0.888	0.894	0.853	0.955	0.317	0.356	0.343	0.371	0.311	0.583	0.648	0.632	0.545	0.376	0.414	0.457	0.441
EPLC-272H	1.03	0.944	0.637	0.755	0.621	0.363	0.353	0.316	0.299	0.177	0.877	–	0.926	1.03	0.744	0.742	0.758	0.657
H3255	0.262	0.227	0.224	0.255	0.253	0.278	0.35	0.347	0.429	0.33	0.548	0.646	0.538	0.625	0.483	0.498	0.5	0.527
HARA	0.756	0.797	0.611	0.775	0.574	0.304	0.282	0.235	0.234	0.195	0.747	0.327	0.271	0.294	0.331	0.244	0.317	0.256
HCC-15	0.949	0.882	0.748	0.746	0.708	0.64	0.625	0.578	0.559	0.462	0.42	0.405	0.374	0.36	0.354	0.305	0.348	0.337
HCC-44	1.04	0.994	0.94	0.937	0.678	–	–	–	–	–	0.451	0.392	0.431	0.373	0.295	0.358	0.346	0.363
HCC-78	0.647	0.764	0.684	0.841	0.746	0.317	0.439	0.37	0.374	0.493	0.294	0.297	0.288	0.311	0.454	0.384	0.387	0.456
HCC-366	1.12	0.954	1	0.993	0.997	0.723	0.594	0.665	0.556	0.646	0.289	0.284	0.256	0.272	0.117	0.139	0.258	0.157
HCC-827	0.185	0.196	0.203	0.189	0.159	0.308	0.34	0.301	0.377	0.288	0.331	0.224	0.326	0.308	0.396	0.242	0.401	0.386

Cell Line	relative viability (Tosedostat + Lapatinib; first compound 0.02 µM)	relative viability (Tosedostat + Lapatinib; first compound 0.06325 µM)	relative viability (Tosedostat + Lapatinib; first compound 0.2 µM)	relative viability (Tosedostat + Lapatinib; first compound 0.6325 µM)	relative viability (Tosedostat + Lapatinib; first compound 2 µM)	relative viability (Tosedostat + Dasatinib; first compound 0.02 µM)	relative viability (Tosedostat + Dasatinib; first compound 0.06325 µM)	relative viability (Tosedostat + Dasatinib; first compound 0.2 µM)	relative viability (Tosedostat + Dasatinib; first compound 0.6325 µM)	relative viability (Tosedostat + Dasatinib; first compound 2 µM)	relative viability ([1]; first compound 0.253 µM)	relative viability ([1]; first compound 0.8 µM)	relative viability ([1]; first compound 2.53 µM)	relative viability ([1]; first compound 8 µM)	relative viability ([2]; first compound 0.253 µM)	relative viability ([2]; first compound 0.8 µM)	relative viability ([2]; first compound 2.53 µM)	relative viability ([2]; first compound 8 µM)
HOP-62	1.08	0.935	1.08	0.891	0.983	0.678	0.628	0.665	0.685	0.57	0.71	–	0.784	0.575	0.388	0.116	0.192	0.279
IA-LM	0.885	0.925	0.61	0.746	0.645	–	–	–	–	–	0.415	0.266	0.288	0.34	0.114	0.12	0.131	0.121
LC-2-ad	1.02	0.981	0.993	0.909	1.04	0.865	0.51	0.675	0.602	0.337	0.334	0.314	0.336	0.326	0.297	0.257	0.255	0.238
LCLC-97TM1	0.951	–	–	0.641	0.766	0.901	0.988	0.811	0.819	0.915	0.262	–	0.442	0.327	0.369	–	0.267	0.258
LCLC-103H	–	–	–	–	–	0.49	0.523	0.503	0.366	0.341	0.819	0.746	0.723	0.746	0.512	0.509	0.514	0.465
LK-2	0.958	0.971	0.892	0.995	1.2	0.29	0.275	0.296	0.4	0.267	0.216	0.246	0.24	0.259	0.757	0.58	0.655	0.672
LOU-NH91	0.8	0.88	0.875	0.868	0.778	0.6	0.584	0.568	0.51	0.42	–	0.654	0.703	0.749	–	0.818	0.879	0.883
LU99A	1.02	1.08	0.76	0.813	0.869	0.517	0.495	0.506	0.424	0.413	0.571	0.604	0.655	0.552	0.214	0.294	0.277	0.299
LXF-289	0.967	0.883	0.935	0.868	0.92	0.199	0.248	0.244	0.225	0.184	0.612	0.593	0.623	0.545	0.829	0.632	0.902	0.788
NCI-H23	1.23	1.06	0.958	1	0.628	0.785	0.817	0.741	0.662	0.455	0.6	–	0.454	0.441	0.164	0.272	0.327	0.302
NCI-H441	–	–	–	–	–	0.702	0.61	0.583	0.445	0.539	0.615	0.428	0.541	0.36	0.355	0.353	0.349	0.383
NCI-H522	–	–	–	–	–	0.901	0.982	0.858	0.843	0.945	–	–	–	–	0.694	0.566	0.664	0.686
NCI-H1299	1.02	0.954	0.96	0.951	0.892	–	–	–	–	–	0.785	0.711	0.756	0.689	0.741	0.722	0.717	0.664
NCI-H1395	1.1	0.944	0.877	0.862	0.674	0.383	0.426	0.448	0.468	0.41	–	–	–	–	0.482	0.539	0.445	0.448
NCI-H1563	1.03	1.03	0.957	0.956	1.05	0.507	0.528	0.459	0.512	0.442	0.861	0.858	0.837	0.868	–	–	–	–
NCI-H1648	–	–	–	–	–	–	–	–	–	–	–	–	–	–	0.459	0.574	0.406	0.618
NCI-H1703	1.35	1	1.02	0.743	0.943	–	–	–	–	–	0.728	0.661	0.764	0.611	0.341	0.438	0.448	0.609
NCI-H1793	0.579	0.73	0.874	0.82	0.618	0.431	0.408	0.388	0.316	0.37	–	–	–	–	0.761	0.74	0.762	0.738
NCI-H2342	–	–	–	–	–	0.306	0.367	0.321	0.275	0.295	–	–	–	–	0.305	0.309	0.369	0.363
SW 900	–	–	–	–	–	0.54	0.485	0.714	0.875	0.416	–	–	–	–	–	0.801	0.776	0.802
